Assay results as given in patent US5214070A, “Diaryl ether cycloalkanes” (Imperial Chemical Industries PLC, priority 1989, dated 1993).
pIC50: −log10 of the molar value.

System: 5-LO
Test: Test b): A23187-challenged heparinised human blood, LTB4 radioimmunoassay
Assay type: cell-based
Settings: A23187 challenge
Method: b) An in vitro assay system involving incubating a test compound with heparinised human blood, prior to challenge with the calcium ionophore A23187 and then indirectly measuring the inhibitory effects on 5-LO by assaying the amount of LTB4 using the specific radioimmunoassay described by Carey and Forder (F. Carey and R. A. Forder, Brit. J. Pharmacol. 1985, 84, 34P) which involves the use of a protein-LTB4 conjugate produced using the procedure of Young et alia (Prostaglandins, 1983, 26(4), 605-613). The effects of a test compound on the enzyme cyclooxygenase (which is involved in the alternative metabolic pathway for arachidonic acid and gives rise to prostaglandins, thromboxanes and related metabolites) may be measured at the same time using the specific radioimmunoassay for thromboxane B2 (TxB2) described by Carey and Forder (see above). This test provides an indication of the effects of a test compound against 5-LO and also cyclooxygenase in the presence of blood cells and proteins. It permits the selectivity of the inhibitory effect on 5-LO or cyclooxygenase to be assessed.

pIC50 | SMILES
~6.70 | CO[C@H]1CCC[C@@]1(OC)c1cc(F)cc(Sc2ccc3ccccc3c2)c1 (racemic) [(1RS,2SR)-1-[5-fluoro-3-(naphth-2-ylthio)phenyl]-1,2-dimethoxycyclopentane]
~6.70 | C=CCO[C@@]1(c2cc(F)cc(Sc3ccc4ccccc4c3)c2)CCC[C@@H]1OC (racemic) [(1RS,2SR)-1-allyloxy-1-[5-fluoro-3-(naphth-2-ylthio)phenyl]-2-methoxycyclopentane]
